From article PMC12002330 (Proceedings of the National Academy of Sciences of the …, 2025)
Read-outs that look alike come from different tables or passages of the source. Blank lines part the entries; values can stand above or below the compound they belong to.

Columns and labels:
[1] = biological target: recombinant WT ZIKV NS4B (ZIKV) (UniProt Q32ZE1); test: ITC
[2] = biological target: recombinant DENV-2 NS4B (mature, full-length) with an N-terminal hexahistidine tag (DENV-2) (UniProt P14340); test: ITC
[3] = biological target: recombinant DENV-2 NS4B (mature, full-length) with an N-terminal hexahistidine tag (DENV-2) (UniProt P14340); test: BLI
[4] = system: DENV-2 NGC-Nluc; test: Antiviral assay using NGC-Nluc in Huh7 cells; type: cell-based
[5] = system: four serotypes of DENV; settings: cited from earlier work
[6] = system: DENV-2 NGC strain (WT); test: microbe, parasite or virus in culture; type: cell-based
[7] = biological target: NS4B peptide 121-171 (cytosolic loop) (Dengue virus type 2, UniProt P29990); type: binding; settings: aa 121 to 171
[8] = biological target: NS4B/NS3 interaction (WT NS4B) (Dengue virus type 2, UniProt P14340); type: cell-based
[9] = biological target: DENV-2 NS4B/NS3 interaction (Dengue virus type 2, UniProt P29990); type: binding
[10] = biological target: WT DENV-2 NS4B (Dengue virus type 2, UniProt P29990); test: ITC binding of inhibitor to NS4B
Chain of WT DENV-2 NS4B (P29990 2244-2491): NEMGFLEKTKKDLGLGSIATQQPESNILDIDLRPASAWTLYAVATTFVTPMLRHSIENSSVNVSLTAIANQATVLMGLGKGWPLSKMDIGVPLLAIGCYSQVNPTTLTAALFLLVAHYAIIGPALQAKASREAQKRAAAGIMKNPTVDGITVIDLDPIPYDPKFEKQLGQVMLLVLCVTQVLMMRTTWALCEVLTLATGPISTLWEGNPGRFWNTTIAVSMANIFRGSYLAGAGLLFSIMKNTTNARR

Chain of recombinant DENV-2 NS4B (mature, full-length) with an N-terminal hexahistidine tag (DENV-2) (P14340 2244-2491 limits assumed): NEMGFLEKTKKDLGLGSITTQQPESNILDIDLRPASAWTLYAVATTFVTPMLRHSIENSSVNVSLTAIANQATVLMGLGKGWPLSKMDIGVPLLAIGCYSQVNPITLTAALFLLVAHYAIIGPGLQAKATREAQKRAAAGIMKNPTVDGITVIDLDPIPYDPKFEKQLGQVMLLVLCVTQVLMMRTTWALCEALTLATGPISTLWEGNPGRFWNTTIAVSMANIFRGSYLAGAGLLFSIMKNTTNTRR
Chain of recombinant DENV-2 full-length NS3 (P14340 1476-2093 limits assumed): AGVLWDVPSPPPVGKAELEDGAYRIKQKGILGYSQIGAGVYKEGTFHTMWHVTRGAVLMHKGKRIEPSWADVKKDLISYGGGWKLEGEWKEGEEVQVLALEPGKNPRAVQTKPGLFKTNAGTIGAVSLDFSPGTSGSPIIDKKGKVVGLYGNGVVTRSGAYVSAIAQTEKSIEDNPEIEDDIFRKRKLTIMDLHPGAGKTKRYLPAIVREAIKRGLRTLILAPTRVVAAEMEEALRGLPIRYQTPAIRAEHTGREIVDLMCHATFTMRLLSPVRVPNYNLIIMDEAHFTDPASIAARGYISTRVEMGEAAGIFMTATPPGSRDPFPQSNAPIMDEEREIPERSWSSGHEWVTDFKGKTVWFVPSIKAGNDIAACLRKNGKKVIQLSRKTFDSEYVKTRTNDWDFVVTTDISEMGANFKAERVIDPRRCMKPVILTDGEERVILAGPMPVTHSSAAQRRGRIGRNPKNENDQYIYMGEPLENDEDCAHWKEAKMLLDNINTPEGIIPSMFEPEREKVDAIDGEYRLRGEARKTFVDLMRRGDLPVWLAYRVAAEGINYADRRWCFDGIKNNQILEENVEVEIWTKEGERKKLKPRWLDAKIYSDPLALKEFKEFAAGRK
Chain of NS4B/NS3 interaction (WT NS4B) (P14340 2244-2491): as the sequence (P14340 2244-2491 limits assumed) above
Chain of DENV-2 NS4B/NS3 interaction (P29990 2244-2491): as the sequence (P29990 2244-2491) above
Chain of NS4B peptide 121-171 (cytosolic loop) (P29990 2364-2414): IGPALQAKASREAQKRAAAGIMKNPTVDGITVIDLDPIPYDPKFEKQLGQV

Compound: NS3 used in the ITC of ZIKV NS4B/NS3 interactions (enzyme)
- Kd [1]: 3.4 µM

Compound: recombinant DENV-2 full-length NS3 (from UniProt P14340 1476-2093) (enzyme)
- KD with NITD-688 (molar ratio to NS4B 1:2) [2]: 26.2 µM
- KD with NITD-688 (molar ratio to NS4B 4:1) [2]: 594 µM
- Kd [2]: 12.3 µM
- Kd [3]: 13 µM
- fold increase of koff, 200 nM against 3.1 nM NITD-688 [3]: 2.6 fold

Compound: C#C[C@@]1(O)[C@H](O)[C@@H](CO)O[C@H]1n1ccc2c(N)ncnc21 [NITD-008]
- EC50 ([4]; Huh7 cells): 380 nM

- EC50 ([4]; Dengue virus, DENV2, Huh-7, 48 h): 0.031 nM
- EC50 ([6]; Dengue virus, DENV2, A549, 48 h, read-out: EC50 (averaged)): 0.019 nM
- binding to cytosolic loop of NS4B by ITC [7]: not the cytosolic loop
- decrease of NS3 co-IPed with NS4B ([8]; 10 nM JNJ-1802 added at 4 h posttransfection): 80%
- decrease of NS3 co-IPed with NS4B ([8]; 10 nM JNJ-1802 added at 24 h posttransfection): 8%
- more inhibition of NS4B/NS3 interactions than NITD-688 ([9]; ITC assay): approximately 4 fold
- inhibition of NS4B/NS3 binding ([9]; ITC, JNJ-1802 preincubated with NS4B): effectively inhibited
- higher binding affinity to NS4B compared to NITD-688 [10]: 4.2 fold
Compound: COc1cc(N[C@H](C(=O)c2c[nH]c3ccc(OC(F)(F)F)cc23)c2ccc(Cl)cc2OC)cc(S(C)(=O)=O)c1 [JNJ-1802]
- efficacy against four serotypes of DENV [5]: picomolar to low nanomolar efficacy
- higher potency in cellular assays than NITD-688 [6]: ~ 100 fold
